Reference: patent publication US20040209799A1, “JAK/STAT pathway inhibitors and the uses thereof” (priority 2000, published 2004)

Columns and labels:
JAK3 = target: T1, JAK3 (Homo sapiens, UniProt P52333); conditions: cited from earlier work
T1 sequence (P52333 1-1124): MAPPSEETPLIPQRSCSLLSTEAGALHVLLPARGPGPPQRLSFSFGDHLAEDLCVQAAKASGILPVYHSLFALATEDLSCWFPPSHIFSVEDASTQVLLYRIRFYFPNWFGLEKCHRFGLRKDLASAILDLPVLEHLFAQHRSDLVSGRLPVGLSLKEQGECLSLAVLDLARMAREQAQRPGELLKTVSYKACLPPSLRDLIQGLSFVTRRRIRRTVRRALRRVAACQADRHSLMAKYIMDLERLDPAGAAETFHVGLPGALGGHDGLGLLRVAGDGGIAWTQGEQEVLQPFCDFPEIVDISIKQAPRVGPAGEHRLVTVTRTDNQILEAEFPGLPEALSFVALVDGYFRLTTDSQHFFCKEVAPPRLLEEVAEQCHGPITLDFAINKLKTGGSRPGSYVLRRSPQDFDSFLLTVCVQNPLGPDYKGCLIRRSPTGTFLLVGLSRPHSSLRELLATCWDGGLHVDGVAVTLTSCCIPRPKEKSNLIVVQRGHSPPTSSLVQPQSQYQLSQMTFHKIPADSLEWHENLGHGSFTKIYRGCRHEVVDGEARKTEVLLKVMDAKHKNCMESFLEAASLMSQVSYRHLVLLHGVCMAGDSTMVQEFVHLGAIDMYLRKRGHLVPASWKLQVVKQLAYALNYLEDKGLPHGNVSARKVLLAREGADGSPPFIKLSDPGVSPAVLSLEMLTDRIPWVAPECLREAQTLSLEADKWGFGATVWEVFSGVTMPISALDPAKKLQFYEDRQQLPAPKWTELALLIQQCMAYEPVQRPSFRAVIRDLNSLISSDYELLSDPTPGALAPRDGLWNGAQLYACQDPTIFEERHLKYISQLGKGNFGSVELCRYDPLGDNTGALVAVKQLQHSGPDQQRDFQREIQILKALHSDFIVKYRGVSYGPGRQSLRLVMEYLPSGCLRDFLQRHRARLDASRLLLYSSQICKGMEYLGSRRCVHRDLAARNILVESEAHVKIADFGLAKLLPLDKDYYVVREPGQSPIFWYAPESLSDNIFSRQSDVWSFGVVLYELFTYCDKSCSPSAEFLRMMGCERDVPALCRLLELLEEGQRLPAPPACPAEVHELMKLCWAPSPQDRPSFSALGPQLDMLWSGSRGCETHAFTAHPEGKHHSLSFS

chondrocytes = conditions: in vitro; cited from earlier work
[1] = target: LCK (Lymphoid T-cell protein tyrosine kinase) (Homo sapiens, UniProt P06239); experiment: poly (Glu, Tyr) 4:1 ELISA, LCK; type: biochemical; conditions: ec-50 values ranging from hundreds of micromolar to no inhibition (data not shown)
Procedure: (§1) To further examine the inhibition characteristics of DBH (and its variants) to a variety of cellular components, a poly (Glu, Tyr) 4:1 ELISA was performed. Hymenialdisine (H), DBH (as marine sponge extracts: see Chipman and Faulkner, 1997), and three variant forms of synthetic DBH: the free base form of DBH (DBH-2FB), a trifluoroacetic acid salt form of DBH (DBH-2S), and a methanesulfonic acid salt form of DBH (DBH 1) were solubilized in DMSO, and tested for the ability to inhibit; ZAP-70 (ζ-associated polypeptide of 70 kDa) protein tyrosine kinase, BTK (Bruton's agarnrnaglobulinaemia tyrosine kinase), JAK3 (Janus kinase 3) protein tyrosine kinase, LCK (Lymphoid T-cell protein tyrosine kinase), and IGFR (Insulin-like growth factor receptor) protein tyrosine kinase.
(§2) Maxisorb microtiter plates (Nalge Nunc International, Rochester, N.Y.) were coated with 1 mg/ml Poly(Glu,Tyr) 4:1 (Sigma, St. Louis, Mo.) solubilized in phosphate buffered saline (PBS), 0.02% sodium azide. On the day of the assay, microtiter plates were washed 4× with TBS-Tween (25 mM Tris pH 8.0, 150 mM NaCl, 0.05% Tween 20) using a Skatron plate washer (Skatron Instruments, Sterling, Va.). 200 μl of sterile blocking buffer (3% BSA in PBS, 0.02% sodium azide) was added to each well, and the microtiter plates were incubated at 37° C. for 1 hour. The blocking buffer was removed, the plates washed, and various concentrations of inhibitor were added in a 20 μl volume to the wells. 60 μl of the appropriate substrate mix was then added. Substrate mixes were prepared as described in Table 2:
(§3) Following addition of the substrate mix, 20 μl of the test protein tyrosine kinase (in 1× assay buffer) was added. Kinase reactions were incubated 30 min at 37° C., followed by washes in the Skatron plate washer. 100 μl of biotinylated PT-66 anti-phosphotyrosine monoclonal antibody (Sigma, St. Louis, Mo.) (diluted 1:4000 in 0.5% BSA, sterile-filtered TBS) was added to each well, and incubated for an additional 30 minutes at 37° C. […] The samples were then read at 450 nm in a plate reader.

[2] = system: chondrocytes in culture and explants of articular cartilage; conditions: cited from earlier work
[3] = target: T2, ZAP-70 (ζ-associated polypeptide of 70 kDa) protein tyrosine kinase (Homo sapiens, UniProt P43403); experiment: poly (Glu, Tyr) 4:1 ELISA, ZAP-70; type: biochemical; conditions: ec-50 values ranging from hundreds of micromolar to no inhibition (data not shown)
T2 sequence (P43403 1-619): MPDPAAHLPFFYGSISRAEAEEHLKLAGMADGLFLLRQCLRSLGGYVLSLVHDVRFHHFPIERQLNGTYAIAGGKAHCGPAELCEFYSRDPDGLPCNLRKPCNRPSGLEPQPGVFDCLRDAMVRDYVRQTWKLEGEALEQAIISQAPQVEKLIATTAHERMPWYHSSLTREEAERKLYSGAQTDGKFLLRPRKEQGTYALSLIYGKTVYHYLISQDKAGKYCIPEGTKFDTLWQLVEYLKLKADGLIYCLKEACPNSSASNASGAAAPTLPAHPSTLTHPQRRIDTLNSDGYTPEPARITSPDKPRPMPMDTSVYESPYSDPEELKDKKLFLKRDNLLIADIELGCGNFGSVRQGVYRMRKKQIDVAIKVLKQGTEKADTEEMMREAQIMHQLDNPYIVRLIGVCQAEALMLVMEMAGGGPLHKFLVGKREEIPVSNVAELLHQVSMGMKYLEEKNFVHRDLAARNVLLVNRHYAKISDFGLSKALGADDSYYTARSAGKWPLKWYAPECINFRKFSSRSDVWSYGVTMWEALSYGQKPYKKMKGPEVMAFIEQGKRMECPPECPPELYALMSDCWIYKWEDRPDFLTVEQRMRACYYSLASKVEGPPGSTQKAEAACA
Procedure: as §1, §2, §3

[4] = target: BTK (Bruton's agarnrnaglobulinaemia tyrosine kinase) (Homo sapiens, UniProt Q06187); experiment: poly (Glu, Tyr) 4:1 ELISA, BTK; type: biochemical; conditions: ec-50 values ranging from hundreds of micromolar to no inhibition (data not shown)
Procedure: as §1, §2, §3

[5] = target: T3, JAK3 (Janus kinase 3) protein tyrosine kinase (Homo sapiens, UniProt P52333); experiment: poly (Glu, Tyr) 4:1 ELISA, JAK3; type: biochemical; conditions: inhibitors solubilized in DMSO, read-out: ec-50 (effective concentration for 50% inhibition) of JAK3
T3 sequence (P52333 1-1124): T1 sequence (P52333 1-1124)
Procedure: as §1, §2, §3

[6] = target: IGFR (Insulin-like growth factor receptor) protein tyrosine kinase (Homo sapiens, UniProt P08069); experiment: poly (Glu, Tyr) 4:1 ELISA, IGFR; type: biochemical; conditions: ec-50 values ranging from hundreds of micromolar to no inhibition (data not shown)
Procedure: as §1, §2, §3

JAK3 mRNA = experiment: northern blot analysis of JAK3 expression in human articular chondrocytes; type: cell-based; conditions: 2 ng/ml for 24 hours, normal adult human articular chondrocytes in monolayer
Procedure: Frozen chondrocyte cell strain HC30-0198 (normal human articular chondrocytes prepared as described in Example 1) was thawed, cultured in monolayer (second passage), and cultured to 5 days post confluence. Test cultures were rinsed in phosphate buffered saline (PBS), followed by addition of either; 1) recombinant human interleukin-1β (rhIL-1β) (R&D Systems, Minneapolis, Minn.) at 2 ng/ml for 24 hours in serum-free DMEM containing 1% antibiotic solution, or 2) serum-free DMEM containing 1% antibiotic solution only (control).
RNA on the Northern blot was fixed to the membrane by using a Stratalinker® 1800 UV Crosslinker (Stratagene, La Jolla, Calif.).
A 109-base pair human cDNA for JAK3 was generated by RT-PCR (see Example 2 above).
Prehybridization and hybridization of the Northern blot was performed at 42° C. using a 1:1 dilution of 2× Prehybridization/Hybridization Solution (GIBCO/BRL, Gaithersburg, Md.) and formamide. After 15 hours of hybridization using the JAK3 DNA probe, the blot was successively washed two times in 2×SSC/0.1% SDS (15 minutes/wash at room temperature), and two times in 0.5×SSC/0.1% SDS (30 minutes/wash at 65° C.). The blot was allowed to air dry, and the radioactive signal was visualized using a Fujifilm BAS-1500 phosphorimager (Fuji Medical Systems, USA, Stamford, C1).

Chain of IGFR (Insulin-like growth factor receptor) protein tyrosine kinase (P08069 31-1367): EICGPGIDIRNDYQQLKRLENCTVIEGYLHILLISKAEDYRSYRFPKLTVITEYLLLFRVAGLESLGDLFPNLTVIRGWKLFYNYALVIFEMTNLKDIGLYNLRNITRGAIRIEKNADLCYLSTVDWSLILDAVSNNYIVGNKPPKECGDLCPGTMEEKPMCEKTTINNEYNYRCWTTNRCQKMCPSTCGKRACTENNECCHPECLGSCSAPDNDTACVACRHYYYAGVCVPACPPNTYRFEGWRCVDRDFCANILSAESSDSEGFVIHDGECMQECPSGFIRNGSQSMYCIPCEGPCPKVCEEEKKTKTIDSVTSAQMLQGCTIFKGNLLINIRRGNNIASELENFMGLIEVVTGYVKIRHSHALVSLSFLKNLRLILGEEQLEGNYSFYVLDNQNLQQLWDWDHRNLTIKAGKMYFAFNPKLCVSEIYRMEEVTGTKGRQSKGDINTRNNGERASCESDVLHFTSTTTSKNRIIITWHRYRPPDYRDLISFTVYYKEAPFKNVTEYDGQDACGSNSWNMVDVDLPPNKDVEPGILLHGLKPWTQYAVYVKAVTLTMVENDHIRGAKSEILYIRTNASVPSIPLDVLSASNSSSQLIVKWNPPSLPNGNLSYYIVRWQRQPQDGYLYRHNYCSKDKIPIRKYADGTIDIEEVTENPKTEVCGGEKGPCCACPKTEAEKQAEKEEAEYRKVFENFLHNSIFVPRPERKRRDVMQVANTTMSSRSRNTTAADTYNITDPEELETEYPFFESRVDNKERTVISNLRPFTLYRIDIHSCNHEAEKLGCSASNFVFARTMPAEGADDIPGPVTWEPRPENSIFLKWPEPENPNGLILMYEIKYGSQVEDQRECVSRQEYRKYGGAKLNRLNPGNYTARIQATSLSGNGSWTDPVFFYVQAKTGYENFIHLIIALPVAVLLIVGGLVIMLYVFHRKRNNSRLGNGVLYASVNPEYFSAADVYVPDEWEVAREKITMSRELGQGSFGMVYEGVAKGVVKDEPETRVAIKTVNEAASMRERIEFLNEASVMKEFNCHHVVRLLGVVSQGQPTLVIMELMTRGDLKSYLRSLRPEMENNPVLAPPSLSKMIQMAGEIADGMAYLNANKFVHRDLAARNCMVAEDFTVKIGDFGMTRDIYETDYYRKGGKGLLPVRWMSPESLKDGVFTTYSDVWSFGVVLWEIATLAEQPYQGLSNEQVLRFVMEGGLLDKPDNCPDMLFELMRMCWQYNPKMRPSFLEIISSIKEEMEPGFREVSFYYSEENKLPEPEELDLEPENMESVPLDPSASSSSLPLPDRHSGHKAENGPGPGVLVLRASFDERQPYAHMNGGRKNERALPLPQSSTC
Chain of LCK (Lymphoid T-cell protein tyrosine kinase) (P06239 whole entry, species assumed): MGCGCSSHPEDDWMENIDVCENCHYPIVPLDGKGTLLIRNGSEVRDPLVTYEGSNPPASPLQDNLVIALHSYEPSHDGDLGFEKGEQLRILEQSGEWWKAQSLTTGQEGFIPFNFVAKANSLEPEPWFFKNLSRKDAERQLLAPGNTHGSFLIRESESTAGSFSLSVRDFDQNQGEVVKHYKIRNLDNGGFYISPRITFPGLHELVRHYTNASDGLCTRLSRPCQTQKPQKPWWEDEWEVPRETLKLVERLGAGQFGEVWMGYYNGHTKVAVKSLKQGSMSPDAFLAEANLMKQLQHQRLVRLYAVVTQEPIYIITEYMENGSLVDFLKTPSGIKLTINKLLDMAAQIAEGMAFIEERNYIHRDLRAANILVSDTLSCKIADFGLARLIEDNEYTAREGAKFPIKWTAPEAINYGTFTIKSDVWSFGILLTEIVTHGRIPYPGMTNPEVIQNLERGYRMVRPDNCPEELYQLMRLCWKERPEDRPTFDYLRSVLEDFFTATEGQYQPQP
Chain of BTK (Bruton's agarnrnaglobulinaemia tyrosine kinase) (Q06187 whole entry, species assumed): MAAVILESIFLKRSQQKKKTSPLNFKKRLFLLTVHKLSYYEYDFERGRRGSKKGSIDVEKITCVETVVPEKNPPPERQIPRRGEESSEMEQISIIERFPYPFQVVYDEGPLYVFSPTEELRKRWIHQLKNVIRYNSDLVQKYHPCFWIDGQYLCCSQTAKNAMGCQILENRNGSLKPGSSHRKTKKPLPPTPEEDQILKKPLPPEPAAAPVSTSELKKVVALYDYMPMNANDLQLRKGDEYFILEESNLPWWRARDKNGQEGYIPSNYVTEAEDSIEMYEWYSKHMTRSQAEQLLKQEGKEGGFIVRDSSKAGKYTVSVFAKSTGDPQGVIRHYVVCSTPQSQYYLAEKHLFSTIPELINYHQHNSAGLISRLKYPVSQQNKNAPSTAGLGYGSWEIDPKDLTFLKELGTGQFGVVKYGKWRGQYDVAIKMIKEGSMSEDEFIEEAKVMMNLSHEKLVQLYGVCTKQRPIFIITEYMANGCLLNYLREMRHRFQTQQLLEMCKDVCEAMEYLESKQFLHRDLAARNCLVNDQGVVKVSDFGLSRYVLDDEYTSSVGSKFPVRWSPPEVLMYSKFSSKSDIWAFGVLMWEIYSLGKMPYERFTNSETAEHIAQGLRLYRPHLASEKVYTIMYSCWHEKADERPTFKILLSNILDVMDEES

COc1cc(C(=O)O)c([N+](=O)[O-])cc1OC [4,5-dimethoxy-2-nitrobenzoic acid]
inhibition of JAK3 (JAK3): specifically inhibit

N#C/C(=C\c1ccc(O)c(O)c1)C(=O)NCCCCc1ccccc1 [tyrphostin AG 556]
effect on cartilage degradation by chondrocytes (chondrocytes): reduce or prevent

COc1cc(C(N)=O)c([N+](=O)[O-])cc1OC [4,5-dimethoxy-2-nitrobenzamide]
inhibition of JAK3 (JAK3): specifically inhibit

NC1=NC(=O)C(=C2CCNC(=O)c3[nH]c(Br)cc32)N1 [H, 4-(2-amino-4-oxo-2-imidazolin-5-ylidene)-2-bromo-4,5,6,7-tetrahydropyrrolo (2,3-c) azepine-8-one]
Inhibition of LCK [1]: weak | inhibition of IL-1 induced degradation of glycosaminoglycan and extracellular matrix [2]: inhibit | Inhibition of ZAP-70 [3]: weak | Inhibition of BTK [4]: weak | EC50 [5]: 2.6 to 10.7 µM | Inhibition of IGFR [6]: weak

O=C1NC(=O)c2cc(Nc3ccccc3)c(Nc3ccccc3)cc21 [DAPH, 4,5-dianilinophthalimide]
effect on cartilage degradation by chondrocytes (chondrocytes): reduce or prevent

O=c1c(-c2ccc(O)cc2)coc2cc(O)cc(O)c12 [genistein]
effect on cartilage degradation by chondrocytes (chondrocytes): reduce or prevent

N#CC(C#N)=Cc1cc(O)c(O)c(O)c1 [tyrphostin AG 82]
effect on cartilage degradation by chondrocytes (chondrocytes): reduce or prevent

rhIL-1β: recombinant human interleukin-1β (R&D Systems)
effect on the level of JAK3 mRNA (JAK3 mRNA): neither increases nor decreases

CO[C@H]1[C@@H](OC)C[C@H](C)[C@@H](OC)C2=CC(=O)C=C(NC(=O)/C(C)=C/C=C\[C@H](OC)[C@@H](OC(N)=O)/C(C)=C/[C@@H]1C)C2=O [herbimycin A]
effect on cartilage degradation by chondrocytes (chondrocytes): reduce or prevent
